According to US20080269251A1, “Substituted Pyrazinone Derivatives as Alpha2C-Adrenoreceptor Antagonists” (priority 2005, published 2008):

Experiments:
[1] = molecular target: T1, human adrenergic-α2C receptor (Homo sapiens, UniProt P18825); experiment: Radioligand binding experiment for hα2C-adrenoceptor ([3H]raulwolscine); settings: [3H]raulwolscine 1 nM, 60 minutes at 25° C.; for IC50: read-out: h-α2C pIC50 (converted)
T1 construct: expressed in transfected cells; host or cells: CHO cells, stably transfected; membrane preparation
T1 sequence (P18825 1-462): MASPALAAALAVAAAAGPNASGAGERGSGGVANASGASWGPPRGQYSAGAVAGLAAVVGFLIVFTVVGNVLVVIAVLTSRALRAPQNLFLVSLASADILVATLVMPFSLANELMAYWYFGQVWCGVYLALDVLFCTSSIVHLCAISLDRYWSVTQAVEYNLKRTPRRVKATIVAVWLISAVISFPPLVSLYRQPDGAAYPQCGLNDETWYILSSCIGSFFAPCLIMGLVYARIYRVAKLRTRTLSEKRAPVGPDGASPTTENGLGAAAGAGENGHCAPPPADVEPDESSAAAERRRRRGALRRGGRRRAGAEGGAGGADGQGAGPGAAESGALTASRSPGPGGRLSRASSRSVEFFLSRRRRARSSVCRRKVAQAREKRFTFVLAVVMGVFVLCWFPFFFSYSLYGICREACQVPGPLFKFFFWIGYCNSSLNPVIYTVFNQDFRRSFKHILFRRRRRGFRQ
In short: (§1)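 CHO membranes expressing human α2A or α2C receptors were incubated with 1 nM [^3H]raulwolscine for 60 min at 25° C in glycylglycine 25 mM, pH 8.0, then filtered. Nonspecific binding was defined with 1 μM oxymetazoline for α2A and 1 μM spiroxatrine for α2C. pIC50 came from sigmoidal competition curves.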

[2] = molecular target: T2, human adrenergic-α2A receptor (Homo sapiens, UniProt P08913); experiment: Radioligand binding experiment for hα2A-adrenergic receptor ([3H]raulwolscine); settings: [3H]raulwolscine 1 nM, 60 minutes at 25° C.; for IC50: read-out: h-α2A pIC50 (converted)
T2 construct: expressed in transfected cells; host or cells: CHO cells, stably transfected; membrane preparation
T2 sequence (P08913 1-465): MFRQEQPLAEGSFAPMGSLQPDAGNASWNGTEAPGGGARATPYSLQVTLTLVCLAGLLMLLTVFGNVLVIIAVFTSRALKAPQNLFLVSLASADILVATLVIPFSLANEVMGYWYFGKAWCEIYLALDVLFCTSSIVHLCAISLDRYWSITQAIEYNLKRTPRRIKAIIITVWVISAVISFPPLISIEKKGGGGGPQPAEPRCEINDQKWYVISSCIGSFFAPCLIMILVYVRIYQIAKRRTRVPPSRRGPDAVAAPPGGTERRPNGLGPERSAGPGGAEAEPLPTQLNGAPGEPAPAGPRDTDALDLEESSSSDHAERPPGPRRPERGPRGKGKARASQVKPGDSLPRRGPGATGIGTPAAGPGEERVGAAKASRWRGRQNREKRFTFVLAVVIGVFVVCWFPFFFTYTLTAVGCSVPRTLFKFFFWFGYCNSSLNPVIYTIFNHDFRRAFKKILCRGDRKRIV
In short: as §1

[3] = molecular target: T3, 5HT-transporter (Homo sapiens, UniProt P31645); experiment: Binding experiment for the 5HT-transporter ([3H]paroxetine, human platelet membranes); settings: [3H]paroxetine 0.5 nM, 60 min at 25° C.; for IC50: read-out: h-5HTT pIC50 (converted)
T3 construct: Human platelet membranes (Oceanix Biosciences Corporation, Hanover, Md., USA) were thawed; tissue Oceanix Biosciences Corporation, Hanover, Md., USA; host or cells: human platelet membranes
In short: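 Competition binding of [3H]paroxetine to human platelet membranes in Tris-HCl 50 mM with 120 mM NaCl and 5 mM KCl; bound radioligand separated by GF/B filtration and counted.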

T3 sequence (P31645 whole entry): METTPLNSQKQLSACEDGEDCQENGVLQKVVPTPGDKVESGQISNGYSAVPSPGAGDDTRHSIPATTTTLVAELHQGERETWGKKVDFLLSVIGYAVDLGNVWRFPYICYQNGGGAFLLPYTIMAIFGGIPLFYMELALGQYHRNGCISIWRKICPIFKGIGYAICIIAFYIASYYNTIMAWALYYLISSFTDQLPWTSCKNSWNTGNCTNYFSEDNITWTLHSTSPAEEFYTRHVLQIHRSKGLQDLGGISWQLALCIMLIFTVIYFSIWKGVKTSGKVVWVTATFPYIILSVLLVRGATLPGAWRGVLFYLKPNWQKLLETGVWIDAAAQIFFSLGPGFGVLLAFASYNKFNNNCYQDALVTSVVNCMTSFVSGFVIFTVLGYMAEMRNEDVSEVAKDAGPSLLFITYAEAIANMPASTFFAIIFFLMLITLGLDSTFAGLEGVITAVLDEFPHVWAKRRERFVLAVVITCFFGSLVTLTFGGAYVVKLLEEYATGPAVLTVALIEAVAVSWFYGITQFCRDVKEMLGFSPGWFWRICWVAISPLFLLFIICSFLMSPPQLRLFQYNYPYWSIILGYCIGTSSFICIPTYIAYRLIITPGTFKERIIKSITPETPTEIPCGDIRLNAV

Row | IC50 [1] [nM] | IC50 [2] [nM] | IC50 [3] [nM] | h-α2C pIC50 [1] | h-α2A pIC50 [2] | h-5HTT pIC50 [3] | Structure (SMILES)
1 | 20 | 316 | 15.8 |  |  |  | O=c1c(NC2CCN(Cc3ccc4ccccc4c3)CC2)nccn1-c1ccc(CNCCN2CCOCC2)cc1 [1-93]
2 | 50.1 | 631 | 2000 |  |  |  | O=C(Cn1ccnc(NC2CCN(Cc3ccc4ccccc4c3)CC2)c1=O)NCCN1CCOCC1 [1-94]
3 | 20 | 398 | 6.31 |  |  |  | O=C(Cc1ccsc1)NCc1ccc(-n2ccnc(NC3CCN(Cc4ccc5ccccc5c4)CC3)c2=O)cc1 [1-95]
4 |  |  |  | 8.3 | 7.1 | 8.0 | Cl.O=C(CCN1CCC(F)CC1)NCc1ccc(-n2ccnc(NC3CCN(Cc4ccc5ccccc5c4)CC3)c2=O)cc1F [1-96]
5 | 3.98 | 501 | 12.6 |  |  |  | O=C(NCc1ccc(-n2ccnc(NC3CCN(Cc4ccc5ccccc5c4)CC3)c2=O)cc1)c1ccno1 [1-100]
6 | 25.1 | 501 | 6.31 |  |  |  | O=C(NCc1ccc(-n2ccnc(NC3CCN(Cc4ccc5ccccc5c4)CC3)c2=O)cc1)c1ccncc1 [1-101]
7 | 31.6 | 631 | 158 |  |  |  | O=C(CNCCCn1ccnc(NC2CCN(Cc3ccc4ccccc4c3)CC2)c1=O)c1coc2ccccc12 [1-103]
8 | 20 | 200 | 126 |  |  |  | O=C(Cn1ccnc(NC2CCN(Cc3ccc4ccccc4c3)CC2)c1=O)N(Cc1ccccc1)c1ccccc1 [1-104]
9 | 31.6 | 251 | 20 |  |  |  | O=C1CCCN1Cc1ccc(-n2ccnc(NC3CCN(Cc4ccc5ccccc5c4)CC3)c2=O)cc1 [2-01]
10 |  |  |  | 7.8 | 6.9 | 8.3 | CN1CCN(Cc2ccc(-n3ccnc(NC4CCN(Cc5ccc6ccccc6c5)CC4)c3=O)cc2)CC1 [2-02]
11 | 25.1 | 100 | 12.6 |  |  |  | CN1CCN(c2ccc(-n3ccnc(NC4CCN(Cc5ccc6ccccc6c5)CC4)c3=O)cc2)CC1 [2-03]
12 | 25.1 | 126 | 31.6 |  |  |  | O=C1CN(Cc2ccc(-n3ccnc(NC4CCN(Cc5ccc6ccccc6c5)CC4)c3=O)cc2)CCN1 [2-04]
13 | 39.8 | 251 | 200 |  |  |  | O=C(Cn1ccnc(NC2CCN(Cc3ccc4ccccc4c3)CC2)c1=O)N1CCN(c2ccccc2)CC1 [2-05]
14 | 7.94 | 398 | 316 |  |  |  | O=C(Cn1ccnc(NC2CCN(Cc3ccc4ccccc4c3)CC2)c1=O)N1CCN(Cc2ccccc2)CC1 [2-06]
15 | 79.4 | 398 | 63.1 |  |  |  | Cc1ccc(N2CCN(C(=O)Cn3ccnc(NC4CCN(Cc5ccc6ccccc6c5)CC4)c3=O)CC2)cc1C [2-07]
16 | 158 | 1000 | 501 |  |  |  | O=c1c(NC2CCN(Cc3ccc4ccccc4c3)CC2)nccn1CCN1CCOCC1 [2-09]
17 | 10 | 200 | 7.94 |  |  |  | O=c1c(NC2CCN(Cc3ccc4ccccc4c3)CC2)nccn1-c1ccc(CN2CCCCC2)cc1 [2-11]
18 |  |  |  | 8.1 | 7.3 | 8.4 | O=c1c(NC2CCN(Cc3ccc4ccccc4c3)CC2)nccn1-c1ccc(CN2CCC(F)CC2)cc1 [2-12]
19 | 3.98 | 63.1 | 6.31 |  |  |  | O=c1c(NC2CCN(Cc3ccc4ccccc4c3)CC2)nccn1-c1ccc(CN2CCC(F)CC2)c(F)c1 [2-13]
20 | 10 | 158 | 5.01 |  |  |  | O=c1c(NC2CCN(Cc3ccc4ccccc4c3)CC2)nccn1-c1ccc(CN2CCC(O)CC2)cc1 [2-14]
21 | 31.6 | 251 | 200 |  |  |  | O=C(Cn1ccnc(NC2CCN(Cc3ccc4ccccc4c3)CC2)c1=O)N1CCC(Cc2ccccc2)CC1 [2-15]
22 | 126 | 501 | 1260 |  |  |  | O=C(Cn1ccnc(NC2CCN(Cc3ccc4ccccc4c3)CC2)c1=O)N1CCC(C(F)(F)F)CC1 [2-16]
23 |  |  |  | 8.2 | 6.6 | 8.6 | O=c1c(NC2CCN(Cc3ccc4ccccc4c3)CC2)nccn1-c1ccc(CN2CCC(Oc3cccnc3)CC2)cc1 [2-17]

Row | IC50 [1] [nM] | IC50 [2] [nM] | IC50 [3] [nM] | h-α2C pIC50 [1] | h-α2A pIC50 [2] | h-5HTT pIC50 [3] | Structure (SMILES)
24 | 25.1 | 251 | 100 |  |  |  | O=c1c(NC2CCN(Cc3ccc4ccccc4c3)CC2)nccn1CCO [3-01]
25 | 100 | 631 | 200 |  |  |  | O=c1c(NC2CCN(Cc3ccc4ccccc4c3)CC2)nccn1CCCO [3-02]
26 | 63.1 | 398 | 158 |  |  |  | O=c1c(NC2CCN(Cc3ccc4ccccc4c3)CC2)nccn1CCCCO [3-03]
27 | 79.4 | 1000 | 398 |  |  |  | COC(=O)CCn1ccnc(NC2CCN(Cc3ccc4ccccc4c3)CC2)c1=O [3-04]
28 | 63.1 | 200 | 79.4 |  |  |  | CCOC(=O)CCCn1ccnc(NC2CCN(Cc3ccc4ccccc4c3)CC2)c1=O [3-06]
29 | 12.6 | 79.4 | 10 |  |  |  | CCOC(=O)CCCCn1ccnc(NC2CCN(Cc3ccc4ccccc4c3)CC2)c1=O [3-08]
30 | 100 | 316 | 12.6 |  |  |  | O=c1c(NC2CCN(Cc3ccc4ccccc4c3)CC2)nccn1CCOc1ccccc1 [3-09]
31 | 50.1 | 126 | 15.8 |  |  |  | O=c1c(NC2CCN(Cc3ccc4ccccc4c3)CC2)nccn1CCCOc1ccccc1 [3-10]
32 | 25.1 | 251 | 20 |  |  |  | O=c1c(NC2CCN(Cc3ccc4ccccc4c3)CC2)nccn1CCCOCc1ccccc1 [3-11]
33 | 79.4 | 631 | 79.4 |  |  |  | O=c1c(NC2CCN(Cc3ccc4ccccc4c3)CC2)nccn1CCOC1CCCCO1 (stereo not drawn) [3-12]
34 | 3.98 | 251 | 15.8 |  |  |  | O=c1c(NC2CCN(Cc3ccc4ccccc4c3)CC2)nccn1-c1ccc(COCC2CCCO2)cc1 (stereo not drawn) [3-14]
35 | 100 | 1260 | 200 |  |  |  | CCOC(CCn1ccnc(NC2CCN(Cc3ccc4ccccc4c3)CC2)c1=O)OC (stereo not drawn) [4-01]
36 | 79.4 | 794 | 251 |  |  |  | CCOC(CCn1ccnc(NC2CCN(Cc3ccc4ccccc4c3)CC2)c1=O)OCC [4-02]
37 | 100 | 1000 | 316 |  |  |  | COC(CCn1ccnc(NC2CCN(Cc3ccc4ccccc4c3)CC2)c1=O)OC [4-03]
38 | 79.4 | 501 | 158 |  |  |  | O=c1c(NC2CCN(Cc3ccc4ccccc4c3)CC2)nccn1CCC1OCCO1 [4-04]
39 | 31.6 | 20 | 10 |  |  |  | O=c1c(NC2CCN(Cc3ccc4ccccc4c3)CC2)nccn1-c1ccc2c(c1)OCCO2 [4-05]
40 | 126 | 501 | 1260 |  |  |  | O=c1[nH]ccnc1NC1CCN(Cc2ccc3ccccc3c2)CC1 [5-01]
41 | 63.1 | 158 | 100 |  |  |  | CCCn1ccnc(NC2CCN(Cc3ccc4ccccc4c3)CC2)c1=O [5-02]
42 | 100 | 200 | 1000 |  |  |  | CC(=O)Cn1ccnc(NC2CCN(Cc3ccc4ccccc4c3)CC2)c1=O [5-03]
43 | 39.8 | 200 | 398 |  |  |  | CC(C)(C)C(=O)Cn1ccnc(NC2CCN(Cc3ccc4ccccc4c3)CC2)c1=O [5-04]
44 | 200 | 398 | 316 |  |  |  | N#CCCn1ccnc(NC2CCN(Cc3ccc4ccccc4c3)CC2)c1=O [5-05]
45 | 158 | 316 | 158 |  |  |  | O=c1c(NC2CCN(Cc3ccc4ccccc4c3)CC2)nccn1CCCC(c1ccc(F)cc1)c1ccc(F)cc1 [5-07]
46 | 50.1 | 100 | 15.8 |  |  |  | O=C(CCn1ccnc(NC2CCN(Cc3ccc4ccccc4c3)CC2)c1=O)c1ccccc1 [5-08]
